Tests used:
[1] = system: cdk4 kinase activity in HT 29 cells; assay: Immunoprecipitation and kinase activity assay; type: cell-based, human; details: 60 μM TB, 15 h; p53 His273 mutant
Method: (§1) (Ko U, and […]. Genes & Development 1996; 10(9): 1054-72; Levine AJ., Cell 1997;88(3):323-31.). […] To further test this hypothesis, we examined the TB effects on the levels of p21/Cip1, p27/Kip1 and p53 protein, and the cdk4 kinase activity in three human cancer cell lines (COLO 205, HT 29 and Hep 3B). […] Antisense or sense p53 was added to COLO 205 at a final concentration of 20 μM at 16 h before the cell was challenged with 10% FCS and 60 μM TB treatment for additional 15 h. […] As previously described (Wu X, et. al., Oncogene 1996;12(7):1397-403.), the TB-treated cells were lysed in Rb lysis buffer, and immunoprecipitated with anti-cdk4 antibody (2 μg). The protein complexes in beads were washed twice with Rb lysis buffer and then once with Rb kinase assay buffer. The level of phosphorylated of Rb (for pRb), histone Hi (for cdk2) and glutathione s-transferase-Rb fusion protein (for cdk4) were measured by incubating the beads with 40 μl of hot Rb kinase solution [0.25 μl (2 μg) of Rb-GST fusion protein, 0.5 μl of (γ-^32P) ATP, 0.5 μl of 0.1 mM ATP and 38.75 μl of Rb kinase buffer] at 37° C. for 30 min, and then stopped by boiling the samples in SDS sample buffer for 5 min. The samples were analyzed by 12% SDS-PAGE, and the gel was then dried and subjected to autoradiography.

[2] = system: cdk4 kinase activity in COLO 205 cells; assay: Immunoprecipitation and kinase activity assay; type: cell-based, human; details: 60 μM TB, 15 h after release from quiescence; p53 wild type
Method: as §1

[3] = system: cdk4 kinase activity in Hep 3B cells; assay: Immunoprecipitation and kinase activity assay; type: cell-based, human; details: 60 μM TB, 15 h; p53 partial deletion
Method: as §1

[4] = system: cell cycle regulatory proteins in COLO 205 cells; assay: Western blot of cell cycle regulatory proteins; type: cell-based, human
Method: They were then returned to culture media supplemented with 10% FCS and 0.05% DMSO with or without TB (60 μM), and at various times thereafter, they were harvested for protein extraction and Western blot analysis. Based on the FACS analysis in the COLO 205 cells, 0, 15, 18 and 24 h after release from quiescence represents the G0/G1, S, G2/M and 2nd G0/G1 phase of the cell cycle, respectively. (FIG. 2A). Accordingly, these time points were selected for protein extraction and Western blot analysis to examine the effects of TB on the expression of cell cycle regulatory proteins. In FIG. 6, (A) In the DMSO-treated COLO 205, 10% FCS caused a transit increase in p21/Cip1 protein (upper panel). […] The COLO 205 cells were synchronized with 0.04% FCS for 24 h, and then released into complete medium (10% FCS) containing TB (60 μM) for the indicated time points. COLO 205 cells were also treated with DMSO (0.05%, v/v) as a control group. Protein extracts (100 μg/lane) were separated by SDS-PAGE, probed with specific antibodies, and detected using the NBT/BCIP system. […] (LaBaer J, et. al., Genes & Development 1997;11(7):847-62.).
In contrast, TB induced apoptosis in the HL 60 (p53 null) and Hep 3B (p53 partial deleted). […] To further test this hypothesis, the dose effects of TB on the levels of cell cycle regulatory protein were conducted in four different human cancer cell lines, COLO 205 (p53 wild type), HT 29 (p53 His^273 mutant), Hep 3B (p53 partial deleted) and HL 60 (p53 null). […] The cells were rendered quiescent for 24 h, and then challenged with 10% FCS and treated with various concentrations of TB (60-150 μM) for additional 15 h. Protein extracts (100 μg/lane) were separated by SDS-PAGE, probed with specific antibodies, and detected using the NBT/BCIP system. Membranes were also probed with anti-GAPDH antibody to correct for differences in protein loading.
As previously described (Chen R J, et. al., Toxicology & Applied Pharmacology 2000;169(2):132-41.), the frozen tumor was pulverized in liquid N2, and then mixed with lysis buffer (Tris-HCl 0.5 M, pH 6.8, SDS 0.4%). For cell cultures, the cells were seeded onto 150-mm dishes and grown in RPMI 1640 (for COLO 205, HT 29 and HL 60 cells) or MEM (for Hep 3B) supplemented with 10% FCS. After the cells had grown to subconfluence, they were rendered quiescent. The cells were released from quiescence with culture medium supplemented with 10% FCS. TB in 0.05% DMSO or 0.05% DMSO without TB was added to the cells at various concentrations and the mixture was allowed to incubate for 17 h. Western blot analysis was performed as previously described (Chen R J, et. al., Toxicology & Applied Pharmacology 2000;169(2):132-41; Lee W S, et. al., Circulation Research 1998;82(8):845-51.). Immunodetection was carried by probing with proper dilutions of specific antibodies at room temperature for 2 h. Anti-p21/Cip1, anti-p27/Kip1, anti-p53, anti-GAPDH monoclonal antibodies (Santa Cruz, Inc. CA); anti-cyclin B1, D1, and D3, anti-cdk2 and cdk4, and PCNA monclonal antibodies (Transduction Laboratories, Lexington, Ky.) were used at a concentration of 1:1,000 dilution. Anti-cyclin A and E polyclonal antibodies (Transduction, San Diego, Calif.) were used at a concentration of 1:250 dilution. The secondary antibodies, alkaline phosphatase-coupled anti-mouse or anti-rabbit antibody (Jackson, Westgrove Pa.), was incubated at room temperature for 1 h at a concentration of 1:5,000 or 1:1,000 dilution, respectively. The specific protein complexes were identified by incubating with the colorigenic substrates (nitro blue tetrazolium, NBT, and 5-bromo-4-chloro-3-indolyl-phosphate, BCIP; Sigma Chemical Co., St. Louis, Mo.). In each experiment, membranes were also probed with anti-GAPDH antibody to correct for differences in protein loading.

[5] = system: human fibroblasts; assay: Flow cytometry (FACS) cell cycle analysis; type: cell-based
[6] = TB 60-150 μM, 15 h, dose-dependent

In the case of `CN(C/C=C/C#CC(C)(C)C)Cc1cccc2ccccc12` [TB, 1-Naphthalenemethanamine, N-(6,6-dimethyl-2-hepten-4-ynyl)-N-methyl-, (E)-], the “assayable cdk4 kinase activity” value [1] was “slight decrease”, the “assayable cdk4 kinase activity” value [2] was “strong decrease” and the “assayable cdk4 kinase activity” value [3] was “slight decrease”. The “p53 and p21 electrophoretogram bands” value ([4]; 60 μM TB alone, 15 h) was “increased in intensity”, the “p21/Cip1 protein level, time effect” value ([4]; TB 60 μM after release from quiescence) was “persistent increase” and the “p27/Kip1 protein levels, time effect” value ([4]; TB 60 μM, 0-24 h after 10% FCS) was “maintained at high levels”. The “Cyclin A2 and cyclin B levels” value ([4]; TB 60 μM, time course) was “also downregulated”, the “level of pRB protein (phosphorylated Rb)” value ([4]; TB 60 μM, time course) was “downregulated” and the “levels of cyclin D1 and PCNA protein” value ([4]; TB 60 μM, time course) was “not changed”. For the same compound, the “levels of cyclin D3, cdk2 and cdk4 protein” value ([4]; TB 60 μM, time course) was “downregulated”, the “levels of cyclin E protein” value ([4]; TB 60 μM, time course) was “slightly elevated” and the “levels of cyclin D3 and cdk4, dose effect” value [4, 6] was “decreased”. The “levels of p53, p21/Cip1 and p27/Kip1 protein, dose effect” value [4, 6] was “increased”, the “cytotoxicity for untransformed human fibroblasts” value ([5]; TB 10-150 μM) was “not cytotoxic” and the “cell cycle arrest or cell death” value ([5]; TB treatment for 15 h) was “did not induce cell cycle arrest or cell death”.

— US20050032904A1, “Composition and use of allylamine derivatives” (priority 2003, published 2005)
